What was measured:
Format in all cases: toxicity, cell-based
HEK-293T = assay: Incucyte cell viability with HEK293T; conditions: human, 10 µM, compound concentration 10 uM
Fibroblast = assay: Incucyte cell viability with human fibroblast; conditions: 10 µM, compound concentration 10 uM
U2OS = assay: Incucyte cell viability with U2OS; conditions: human, 10 µM, compound concentration 10 uM
Note: unitless GR value; below 1 slowed growth and below 0 cell loss.

Compound	Growth Rate (HEK-293T; 6 h, replicate number 2)	Growth Rate (HEK-293T; 12 h, replicate number 2)	Growth Rate (HEK-293T; 18 h, replicate number 2)	Growth Rate (HEK-293T; 24 h, replicate number 1)	Growth Rate (HEK-293T; 24 h, replicate number 2)	Growth Rate (Fibroblast; 0 h, replicate number 1)	Growth Rate (Fibroblast; 6 h, replicate number 1)	Growth Rate (Fibroblast; 6 h, replicate number 2)	Growth Rate (Fibroblast; 12 h, replicate number 1)	Growth Rate (Fibroblast; 12 h, replicate number 2)	Growth Rate (Fibroblast; 18 h, replicate number 1)	Growth Rate (Fibroblast; 18 h, replicate number 2)	Growth Rate (Fibroblast; 24 h, replicate number 1)	Growth Rate (Fibroblast; 24 h, replicate number 2)	Growth Rate (U2OS; 0 h, replicate number 1)	Growth Rate (U2OS; 18 h, replicate number 2)	Growth Rate (U2OS; 24 h, replicate number 1)	Growth Rate (U2OS; 24 h, replicate number 2)	Growth Rate (U2OS; 0 h, replicate number 2)	Growth Rate (U2OS; 12 h, replicate number 1)	also measured
COc1ccc(-c2cc3c(C)nc(N)nc3n([C@H]3CC[C@H](OCCO)CC3)c2=O)cn1 [PF-04691502]	-0.8	-0.6	-0.38	-0.14	-0.25	-1	0.8	0.33	0.03	-0.28	-0.18	-0.29	-0.23	-0.32	-0.97	0.83	0.6	0.62	–	–	Growth Rate (HEK-293T; 6 h, replicate number 1): -0.19; Growth Rate (HEK-293T; 12 h, replicate number 1): -0.29; Growth Rate (HEK-293T; 18 h, replicate number 1): -0.17; Growth Rate (U2OS; 18 h, replicate number 1): 0.65
C[C@@H](C(N)=O)[C@H](N)c1nc2cc(C(C)(C)C)ccc2[nH]1 [PF-06305591]	0.51	0.9	0.91	–	0.94	0.3	-0.98	–	-0.52	–	–	0.77	–	–	-0.1	0.91	0.95	0.99	-0.8	0.69	Growth Rate (U2OS; 12 h, replicate number 2): 0.86
CNC(=O)c1ccc(C)c(-n2c(C)cc(OCc3ccc(F)cc3F)c(Br)c2=O)c1 [PH-797804]	–	–	–	–	–	-0.91	–	0.91	–	0.99	–	–	–	–	-0.97	–	–	–	0.65	0.91	Growth Rate (HEK-293T; 0 h, replicate number 2): 0.72; Growth Rate (U2OS; 6 h, replicate number 2): 0.54; Growth Rate (U2OS; 12 h, replicate number 2): 0.75
CCCCCCCCCCCCCC(=O)O[C@@H]1[C@@H](C)[C@@]2(O)[C@@H](C=C(CO)C[C@]3(O)C(=O)C(C)=C[C@@H]23)[C@@H]2C(C)(C)[C@]12OC(C)=O [PHORBOL MYRISTATE ACETATE]	–	–	0.99	–	0.75	–	0.89	-1	-1	0.09	–	0.85	–	0.78	–	0.92	0.96	0.72	-1	0.98	Growth Rate (HEK-293T; 0 h, replicate number 1): 0.64; Growth Rate (HEK-293T; 0 h, replicate number 2): -0.1; Growth Rate (Fibroblast; 0 h, replicate number 2): -0.74; Growth Rate (U2OS; 18 h, replicate number 1): 0.96
Cc1noc(C)c1-c1cnc2c(-c3ccc(C(=O)O)cc3)cn([C@@H](C)c3ccccn3)c2c1 [PLX-51107]	–	0.89	0.62	0.93	0.48	-0.53	–	-0.59	-0.99	0.35	-0.39	0.36	-0.1	0.49	-0.72	–	0.93	1	-0.91	0.94	Growth Rate (HEK-293T; 0 h, replicate number 1): 0.25; Growth Rate (Fibroblast; 0 h, replicate number 2): -0.82; Growth Rate (U2OS; 6 h, replicate number 1): 0.16
O=C(N[C@H]1CN2CCC1CC2)c1ccc(Cl)cc1 [PNU-282987]	0.88	0.94	–	–	1	–	-0.45	-0.01	–	0.79	–	0.85	–	0.81	–	0.8	0.94	0.86	-0.61	0.84	Growth Rate (U2OS; 6 h, replicate number 2): 0.78; Growth Rate (U2OS; 18 h, replicate number 1): 0.75
CC1(C)CCC[C@]2(C)[C@@H](C=O)C(C=O)=CC[C@@H]12 [POLYGODIAL]	0.55	0.7	0.81	0.8	0.87	–	–	-1	–	0.42	-0.77	0.83	0.41	0.73	0.45	0.76	–	0.88	-0.79	–	Growth Rate (HEK-293T; 6 h, replicate number 1): -0.32; Growth Rate (HEK-293T; 12 h, replicate number 1): 0.22; Growth Rate (HEK-293T; 18 h, replicate number 1): 0.52; Growth Rate (U2OS; 6 h, replicate number 2): 0.73; Growth Rate (U2OS; 12 h, replicate number 2): 0.57

— ChEMBL document CHEMBL5303304, “EUbOPEN Chemogenomics Library - IncuCyte” (2023)
